{"source": "paper PMC8217813", "about": "“Bridging Computational Vaccinology and Vaccine Development Through Systematic Identification, Characterization, and Downselection of Conserved and Variable Circumsporozoite Protein CD4 T Cell Epitopes From Diverse Plasmodium falciparum Strains” (Frontiers in Immunology, 2021)", "note": "Peptide text beside a SMILES is read from it."}
{"biological_target": "T1, HLA A*0101 (Homo sapiens, UniProt P04439, A114D/A174V/A182V/D101N/D185E/E176A/E190D/L180R/Q94H/R68K/S129P/T187R/V100A/V91M/W191G)", "T1 construct": "Pure Protein, LLC (ran the assay)", "assay": "biochemical", "format": "binding", "conditions": "allele A0101; cell-free competition with fluorescently labeled control peptide, fluorescence polarization at 72 hours"}
{"molecule": "CC[C@H](C)[C@H](N)C(=O)N[C@@H](CCC(=O)O)C(=O)N[C@@H](CCC(N)=O)C(=O)N[C@@H](Cc1ccc(O)cc1)C(=O)N[C@@H](CC(C)C)C(=O)N[C@@H](CCCCN)C(=O)N[C@@H](CCCCN)C(=O)N[C@H](C(=O)N[C@@H](CCC(N)=O)C(=O)N[C@@H](Cc1ccc(O)cc1)C(=O)O)[C@@H](C)CC", "note": "[Cluster 316_ICS7] (H-IEQYLKKIQY-OH)", "IC50 (nM)": "Non-Binder"}
{"molecule": "CC[C@H](C)[C@H](NC(=O)[C@H](CC(=O)O)NC(=O)[C@H](CC(N)=O)NC(=O)[C@H](C)NC(=O)[C@H](Cc1ccc(O)cc1)NC(=O)[C@H](CC(=O)O)NC(=O)[C@H](CC(C)C)NC(=O)[C@@H](N)CCC(=O)O)C(=O)N[C@@H](CCC(=O)O)C(=O)N[C@@H](CCCCN)C(=O)O", "note": "[Cluster 357_3D7] (H-ELDYANDIEK-OH)", "IC50 (nM)": "Non-Binder"}
{"molecule": "KMEKCSSVF [Cluster 370_3D7]", "IC50 (nM)": "Non-Binder"}
{"molecule": "NEEPSDKHIK [308_3D7 (10)]", "IC50 (nM)": "Non-Binder"}
{"molecule": "NVDENANAN [Cluster 292_3D7]", "IC50 (nM)": "Non-Binder"}
{"molecule": "NVDPNANPNV [Cluster 109_3D7]", "IC50 (nM)": "Non-Binder"}
{"molecule": "VTCGNGIQV [Cluster 336_3D7]", "IC50 (nM)": "Non-Binder"}
{"biological_target": "T1, HLA A*0101", "assay": "biochemical", "format": "binding", "conditions": "allele A0101; cell-free competition with fluorescently labeled control peptide, fluorescence polarization at 72 hours; read-out: IC50", "units": {"IC50": "µM"}}
{"molecule": "CC[C@H](C)[C@H](NC(=O)[C@H](CC(=O)O)NC(=O)[C@H](CC(N)=O)NC(=O)[C@H](CCC(=O)O)NC(=O)[C@H](Cc1ccc(O)cc1)NC(=O)[C@H](CC(=O)O)NC(=O)[C@H](CC(C)C)NC(=O)[C@@H](N)CCC(N)=O)C(=O)N[C@@H](CCC(=O)O)C(=O)N[C@@H](CCCCN)C(=O)O", "note": "[Cluster 357_CVX89] (H-QLDYENDIEK-OH)", "IC50": 726}
{"biological_target": "T2, HLA A*0201 (Homo sapiens, UniProt P04439, D140Y/D185E/D98H/E176V/E277Q/G131W/G231S/I119V/I121R/I166T/I218V/L300P/L318F/N151K/N90K/P208A/P217A/Q86G/Q94H/R138H/R169H/T345S)", "T2 construct": "Pure Protein, LLC (ran the assay)", "assay": "biochemical", "format": "binding", "conditions": "not given", "units": {"IC50": "µM"}}
{"molecule": "CC[C@H](C)[C@H](NC(=O)[C@H](CCCCN)NC(=O)[C@H](CCCCN)NC(=O)[C@H](CC(C)C)NC(=O)[C@H](Cc1ccc(O)cc1)NC(=O)[C@H](CCC(=O)O)NC(=O)[C@@H](NC(=O)[C@@H](NC(=O)[C@@H](N)Cc1c[nH]cn1)[C@@H](C)CC)[C@@H](C)O)C(=O)O", "note": "[Cluster 315_ICS2] (H-HITEYLKKI-OH)", "IC50": 148}
{"molecule": "CC[C@H](C)[C@H](NC(=O)[C@H](CCCCN)NC(=O)[C@H](CC(C)C)NC(=O)[C@@H](N)Cc1ccc(O)cc1)C(=O)N[C@H](C(=O)N[C@@H](CCC(N)=O)C(=O)N[C@@H](CC(N)=O)C(=O)N[C@@H](CO)C(=O)N[C@@H](CC(C)C)C(=O)O)[C@@H](C)CC", "note": "[Cluster 319_ICS5] (H-YLKIIQNSL-OH)", "IC50": 4.88}
{"biological_target": "T2, HLA A*0201", "assay": "biochemical", "format": "binding", "conditions": "allele A0201; cell-free competition with fluorescently labeled control peptide, fluorescence polarization at 72 hours; read-out: IC50", "units": {"IC50": "µM"}}
{"molecule": "CC(C)C[C@H](N)C(=O)N[C@@H](CO)C(=O)N[C@H](C(=O)N[C@@H](CCC(=O)O)C(=O)N[C@@H](Cc1c[nH]c2ccccc12)C(=O)N[C@@H](CO)C(=O)N1CCC[C@H]1C(=O)N[C@@H](CS)C(=O)N[C@@H](CO)C(=O)N[C@H](C(=O)O)C(C)C)[C@@H](C)O", "note": "[327_3D7 (10)] (H-LSTEWSPCSV-OH)", "IC50": 4.38}
{"molecule": "CC[C@H](C)[C@H](NC(=O)[C@H](CCCCN)NC(=O)[C@H](CC(N)=O)NC(=O)[C@H](CC(C)C)NC(=O)[C@H](Cc1ccc(O)cc1)NC(=O)[C@H](CCC(=O)O)NC(=O)[C@H](CCCCN)NC(=O)[C@@H](NC(=O)[C@@H](N)Cc1c[nH]cn1)[C@@H](C)CC)C(=O)O", "note": "[Cluster 315_3D7] (H-HIKEYLNKI-OH)", "IC50": 259}
{"biological_target": "T3, HLA A*0301 (Homo sapiens, UniProt P04439)", "T3 construct": "Pure Protein, LLC (ran the assay)", "assay": "In vitro class I HLA binding competition assay (fluorescence polarization)", "conditions": "not given", "units": {"IC50": "µM"}}
{"molecule": "CC(C)C[C@H](NC(=O)[C@@H](N)CCCCN)C(=O)N[C@@H](CCCNC(=N)N)C(=O)N[C@@H](CCCCN)C(=O)N1CCC[C@H]1C(=O)N[C@@H](CCCCN)C(=O)N[C@@H](Cc1c[nH]cn1)C(=O)N[C@@H](CCCCN)C(=O)N[C@@H](CCCCN)C(=O)O", "note": "[CL1-61]", "IC50": 3.06}
{"molecule": "CC[C@H](C)[C@H](NC(=O)[C@@H](N)CCCNC(=N)N)C(=O)N[C@@H](CCCCN)C(=O)N1CCC[C@H]1C(=O)NCC(=O)N[C@@H](CO)C(=O)N[C@@H](C)C(=O)N[C@@H](CC(N)=O)C(=O)N[C@@H](CCCCN)C(=O)O", "note": "[Cluster 345_3D7] (H-RIKPGSANK-OH)", "IC50": 21.3}
{"molecule": "CC[C@H](C)[C@H](NC(=O)[C@@H](N)CCCNC(=N)N)C(=O)N[C@@H](CCCCN)C(=O)N1CCC[C@H]1C(=O)NCC(=O)N[C@@H](CO)C(=O)N[C@@H](C)C(=O)N[C@@H](CC(=O)O)C(=O)N[C@@H](CCCCN)C(=O)O", "note": "[Cluster 345_CVX79] (H-RIKPGSADK-OH)", "IC50": 17.7}
{"molecule": "CC[C@H](C)[C@H](NC(=O)[C@H](CC(=O)O)NC(=O)[C@H](CC(N)=O)NC(=O)[C@H](C)NC(=O)[C@H](Cc1ccc(O)cc1)NC(=O)[C@H](CC(=O)O)NC(=O)[C@H](CC(C)C)NC(=O)[C@@H](N)CCC(=O)O)C(=O)N[C@@H](CCC(=O)O)C(=O)N[C@@H](CCCCN)C(=O)O", "note": "[Cluster 357_3D7] (H-ELDYANDIEK-OH)", "IC50": 556}
{"biological_target": "T3, HLA A*0301", "assay": "In vitro class I HLA binding competition assay (fluorescence polarization)", "conditions": "allele A0301; cell-free competition with fluorescently labeled control peptide, fluorescence polarization at 72 hours"}
{"molecule": "CC[C@H](C)[C@H](NC(=O)[C@H](CC(=O)O)NC(=O)[C@H](CC(N)=O)NC(=O)[C@H](CCC(=O)O)NC(=O)[C@H](Cc1ccc(O)cc1)NC(=O)[C@H](CC(=O)O)NC(=O)[C@H](CC(C)C)NC(=O)[C@@H](N)CCC(N)=O)C(=O)N[C@@H](CCC(=O)O)C(=O)N[C@@H](CCCCN)C(=O)O", "note": "[Cluster 357_CVX89] (H-QLDYENDIEK-OH)", "IC50 (nM)": "Non-Binder"}
{"molecule": "IEKKICKMEK [Cluster 364_3D7]", "IC50 (nM)": "Non-Binder"}
{"molecule": "KHIKEYLNK [Cluster 314_3D7]", "IC50 (nM)": "Non-Binder"}
{"molecule": "LDYANDIEK [Cluster 358_3D7]", "IC50 (nM)": "Non-Binder"}
{"molecule": "NANPNANPNK [Cluster 265_3D7]", "IC50 (nM)": "Non-Binder"}
{"molecule": "QLDYANDIEK [Cluster 357_CVX111]", "IC50 (nM)": "Non-Binder"}
{"molecule": "VTCGNGIQV [Cluster 336_3D7]", "IC50 (nM)": "Non-Binder"}
{"biological_target": "T4, HLA B*0702 (Homo sapiens, UniProt P01889)", "T4 construct": "Pure Protein, LLC (ran the assay)", "assay": "biochemical", "format": "binding", "conditions": "allele B0702; cell-free competition with fluorescently labeled control peptide, fluorescence polarization at 72 hours"}
{"molecule": "KMEKCSSVF [Cluster 370_3D7]", "IC50 (nM)": "Non-Binder"}
{"biological_target": "HLA B*4402 (Homo sapiens, UniProt P01889, A223V/A65T/A93T/A95T/D201E/D98Y/E176V/E187L/E204Q/E69K/G107R/H137Y/K202T/L105A/L119I/N104T/N87E/Q56L/Q94N/R106L/R155S/R180D/S101N/S121R/S35A/S48T/T118I/V36M/W191S/Y140D/Y91S)", "assay": "In vitro class I HLA binding competition assay (fluorescence polarization)", "conditions": "allele B4402; cell-free competition with fluorescently labeled control peptide, fluorescence polarization at 72 hours", "description": "The cell-free class I HLA binding assay in use at Pure Protein, LLC allows for in vitro quantification of peptide-HLA binding affinity in a competition format. In this assay, a fluorescently labeled, high binding, control peptide is loaded onto 384-well ½-area plates along with unlabeled experimental peptides. To remove endogenous peptides and render the HLA A and B molecules receptive to binding, HLA is heated at 53°C for 15 minutes and immediately added to the assay. The mixture is then allowed to stand for three days. Once the mixture has reached steady equilibrium (at 72 hours), displacement of the high binding control peptide is measured through Fluorescence Polarization. Binding of experimental peptides is expressed as the percent inhibition of the labeled control peptide (experimental fluorescence / control fluorescence, multiplied by 100). The percent inhibition values for each experimental peptide (across a range of molar concentrations) are used to calculate the concentration which inhibits 50% of the labeled control peptide’s specific binding. This value is referred to as the peptide’s IC50.", "units": {"IC50": "µM"}}
{"molecule": "CC[C@H](C)[C@H](N)C(=O)N[C@@H](CCC(=O)O)C(=O)N[C@@H](CCC(N)=O)C(=O)N[C@@H](Cc1ccc(O)cc1)C(=O)N[C@@H](CC(C)C)C(=O)N[C@@H](CCCCN)C(=O)N[C@@H](CCCCN)C(=O)N[C@H](C(=O)N[C@@H](CCC(N)=O)C(=O)N[C@@H](Cc1ccc(O)cc1)C(=O)O)[C@@H](C)CC", "note": "[Cluster 316_ICS7] (H-IEQYLKKIQY-OH)", "IC50": 157}
{"molecule": "NEEPSDKHIK [308_3D7 (10)]", "IC50 (nM)": "Non-Binder"}
